ChEMBL document CHEMBL6109083, “Design, synthesis, and antitumor activity of NSDs inhibitors targeting lung squamous cell carcinoma” (Eur J Med Chem, 2025)

Tests used:
[1] = tested on: Lewis lung carcinoma cell line; assay: Antiproliferative activity against mouse Lewis lung carcinoma cell line assessed as reduction in cell viability at 0.4 uM by CCK8 assay; assay type: functional, cell-based; settings: time 3-6 day
[2] = tested on: NCI-H1975; assay: Antiproliferative activity against human NCI-H1975 cells assessed as reduction in cell viability at 0.4 uM by CCK8 assay; assay type: functional, cell-based; settings: time 3-6 day
[3] = Tmax in male ICR mouse at 10 mg/kg, po measured up to 24 hrs by LC-MS/MS analysis; assay type: ADME, organism-based; settings: in vivo
[4] = Cmax in male ICR mouse at 10 mg/kg, po measured up to 24 hrs by LC-MS/MS analysis; assay type: ADME, organism-based; settings: in vivo
[5] = Oral bioavailability in male ICR mouse at 10 mg/kg measured up to 24 hrs by LC-MS/MS analysis; assay type: ADME, organism-based; settings: in vivo
[6] = Toxicity in BALB/c mouse xenografted with human NCI-H520 cells assessed as adverse effects at 50 to 100 mg/kg, po administered daily via gavage and measured every 3 days for 14 days; assay type: organism-based; settings: in vivo, 336 h, dose 50-100 mg/kg, time 14 day

## O=C1C(Cl)=C(NCCc2cccc(F)c2)C(=O)c2ncccc21
[1]
  Activity: Time-dependent-effect
[2]
  Activity: Time-dependent-effect
[3]
  Tmax: 20 min
[4]
  Cmax: 0.134 µg/mL
[5]
  F: 157%
[6]
  Activity: Non-toxic
